Data: patent US4060634A (Boehringer Mannheim G.m.b.H., priority 1973, dated 1977)

Assays:
[1] = Particle surface area (BET method); assay type: physicochemical; conditions: precipitated or ground glibenclamide product
[2] = Solubility of glibenclamide in water; assay type: physicochemical
blood sugar = conditions: cited from earlier work

Structure (SMILES) | particle surface area [1] | other results
COc1ccc(Cl)cc1C(=O)NCCc1ccc(S(=O)(=O)NC(=O)NC2CCCCC2)cc1 [Example 1, glibenclamide] | 5.79 m^2 /g | –
COc1ccc(Cl)cc1C(=O)NCCc1ccc(S(=O)(=O)NC(=O)NC2CCCCC2)cc1 [Example 2, glibenclamide] | 9.8 m^2 /g | –
COc1ccc(Cl)cc1C(=O)NCCc1ccc(S(=O)(=O)NC(=O)NC2CCCCC2)cc1 [Example 3, glibenclamide] | 6.0 m^2 /g | –
COc1ccc(Cl)cc1C(=O)NCCc1ccc(S(=O)(=O)NC(=O)NC2CCCCC2)cc1 [Example 4, glibenclamide] | 6.8 m^2 /g | –
COc1ccc(Cl)cc1C(=O)NCCc1ccc(S(=O)(=O)NC(=O)NC2CCCCC2)cc1 [Example 5, glibenclamide] | 10.3 m^2 /g | –
COc1ccc(Cl)cc1C(=O)NCCc1ccc(S(=O)(=O)NC(=O)NC2CCCCC2)cc1 [Example 6, glibenclamide] | 5.2 m^2 /g | –
COc1ccc(Cl)cc1C(=O)NCCc1ccc(S(=O)(=O)NC(=O)NC2CCCCC2)cc1 [Example 7, glibenclamide] | 7.8 m^2 /g | –
COc1ccc(Cl)cc1C(=O)NCCc1ccc(S(=O)(=O)NC(=O)NC2CCCCC2)cc1 [Example 8, glibenclamide] | 5.8 m^2 /g | –
COc1ccc(Cl)cc1C(=O)NCCc1ccc(S(=O)(=O)NC(=O)NC2CCCCC2)cc1 [glibenclamide, N-4-[2-(5-chloro-2-methoxybenzamido)-ethyl]-phenyl-sulfonyl-N'-cyclohexylurea] | – | solubility in water, pH of minimum [2]: reaches a minimum at a pH of 4; blood sugar lowering action (blood sugar; among sulfonylurea derivatives): greatest hitherto known blood sugar lowering action; side effects (blood sugar; in vivo): lowest degree of side effects
